Reference: ChEMBL document CHEMBL1201862, “PubChem BioAssay data set” (2004)
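Method: 48-hour compound exposure of cells in 96-well plates, five concentrations, linear interpolation of endpoints. At the GI50, growth is halved.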 The source made the active and inactive calls. Rule as the data show it: active = GI50 up to about 1.1 µM and inactive = higher.

Experiments:
Assay in all cases: NCI anticancer screen, dose series, 48 h
DU-145 = system: DU-145
SK-MEL-2 = system: SK-MEL-2
SW-620 = system: SW-620
RPMI-8226 = system: RPMI-8226
U-251 = system: U-251
TK-10 = system: TK-10
MDA-MB-231 = system: MDA-MB-231
OVCAR-4 = system: OVCAR-4
HCT-15 = system: HCT-15
OVCAR-3 = system: OVCAR-3
T47D = system: T47D
786-0 = system: 786-0
SF-295 = system: SF-295
BT-549 = system: BT-549
HCT-116 = system: HCT-116
EKVX = system: EKVX
HOP-62 = system: HOP-62
A549 = system: A549
IGROV-1 = system: IGROV-1
SN12C = system: SN12C
MDA-N = system: MDA-N
OVCAR-5 = system: OVCAR-5
SF-539 = system: SF-539
HOP-92 = system: HOP-92
RXF 393 = system: RXF 393
SK-OV-3 = system: SK-OV-3
A498 = system: A498
KM12 = system: KM12
UACC-257 = system: UACC-257
CAKI-1 = system: CAKI-1
NCI-H460 = system: NCI-H460
COLO 205 = system: COLO 205
SK-MEL-5 = system: SK-MEL-5
MCF7 = system: MCF7
K562 = system: K562
MOLT-4 = system: MOLT-4
MDA-MB-435 = system: MDA-MB-435
SK-MEL-28 = system: SK-MEL-28
UACC-62 = system: UACC-62
LOX IMVI = system: LOX IMVI
SNB-75 = system: SNB-75
SR = system: SR
PC-3 = system: PC-3
NCI-H522 = system: NCI-H522
HL-60 = system: HL-60
SNB-19 = system: SNB-19
Hs-578T = system: Hs-578T
NCI-H23 = system: NCI-H23
M14 = system: M14
NCI-H226 = system: NCI-H226
HT-29 = system: HT-29
UO-31 = system: UO-31
ACHN = system: ACHN
NCI/ADR-RES = system: NCI/ADR-RES
CCRF-CEM = system: CCRF-CEM
HCC 2998 = system: HCC 2998
SF-268 = system: SF-268
Malme-3M = system: Malme-3M

Structure (SMILES): COC(=O)/C(C#N)=C(\N)c1c(C)c2ccccc2oc1=N
- GI50 (DU-145): > 100 µM (inactive)
- GI50 (SK-MEL-2): > 100 µM (inactive)
- GI50 (SW-620): > 100 µM (inactive)
- GI50 (RPMI-8226): > 100 µM (inactive)
- GI50 (U-251): > 100 µM (inactive)
- GI50 (TK-10): > 100 µM (inactive)
- GI50 (MDA-MB-231): 86.7 µM (inactive)
- GI50 (OVCAR-4): > 100 µM (inactive)
- GI50 (HCT-15): > 100 µM
- GI50 (OVCAR-3): > 100 µM (inactive)
- GI50 (T47D): > 100 µM (inactive)
- GI50 (786-0): > 100 µM (inactive)
- GI50 (SF-295): > 100 µM (inactive)
- GI50 (BT-549): 64.6 µM (inactive)
- GI50 (HCT-116): > 100 µM (inactive)
- GI50 (EKVX): > 100 µM (inactive)
- GI50 (HOP-62): > 100 µM (inactive)
- GI50 (A549): > 100 µM (inactive)
- GI50 (IGROV-1): > 100 µM (inactive)
- GI50 (SN12C): > 100 µM (inactive)
- GI50 (MDA-N): > 100 µM (inactive)
- GI50 (OVCAR-5): > 100 µM (inactive)
- GI50 (SF-539): > 100 µM (inactive)
- GI50 (HOP-92): > 100 µM (inactive)
- GI50 (RXF 393): > 100 µM (inactive)
- GI50 (SK-OV-3): > 100 µM (inactive)
- GI50 (A498): > 100 µM (inactive)
- GI50 (KM12): > 100 µM (inactive)
- GI50 (UACC-257): > 100 µM (inactive)
- GI50 (CAKI-1): > 10 µM (inactive)
- GI50 (NCI-H460): > 100 µM (inactive)
- GI50 (COLO 205): > 100 µM (inactive)
- GI50 (SK-MEL-5): > 100 µM (inactive)
- GI50 (MCF7): > 100 µM (inactive)
- GI50 (K562): > 100 µM (inactive)
- GI50 (MOLT-4): > 100 µM (inactive)
- GI50 (MDA-MB-435): > 100 µM (inactive)
- GI50 (SK-MEL-28): > 100 µM (inactive)
- GI50 (UACC-62): > 100 µM (inactive)
- GI50 (LOX IMVI): > 100 µM (inactive)
- GI50 (SNB-75): > 100 µM (inactive)
- GI50 (SR): > 100 µM (inactive)
- GI50 (PC-3): > 100 µM (inactive)
- GI50 (NCI-H522): > 100 µM (inactive)
- GI50 (HL-60): > 100 µM (inactive)
- GI50 (SNB-19): > 100 µM (inactive)
- GI50 (Hs-578T): > 100 µM (inactive)

Structure (SMILES): COc1cc2c(cc1OC)C1=C(C=O)c3ccc(OC)c(OC)c3C(O)N1CC2 (configuration not stated)
- GI50 (DU-145): 28.1 µM (inactive)
- GI50 (SK-MEL-2): 13.8 µM (inactive)
- GI50 (SW-620): 37.2 µM (inactive)
- GI50 (RPMI-8226): 7.53 µM (inactive)
- GI50 (U-251): 19.2 µM (inactive)
- GI50 (TK-10): 20.9 µM (inactive)
- GI50 (MDA-MB-231): 16.3 µM (inactive)
- GI50 (OVCAR-4): 40.3 µM (inactive)
- GI50 (HCT-15): 30.8 µM
- GI50 (OVCAR-3): 39 µM (inactive)
- GI50 (NCI-H23): 24.8 µM (inactive)
- GI50 (T47D): 21.1 µM (inactive)
- GI50 (786-0): 35.2 µM (inactive)
- GI50 (SF-295): 24 µM (inactive)
- GI50 (BT-549): 22.2 µM (inactive)
- GI50 (HCT-116): 30.5 µM (inactive)
- GI50 (EKVX): 21.6 µM (inactive)
- GI50 (HOP-62): 39.7 µM (inactive)
- GI50 (A549): 22.7 µM (inactive)
- GI50 (M14): 21.9 µM (inactive)
- GI50 (SN12C): 33.2 µM (inactive)
- GI50 (MDA-N): 31.5 µM (inactive)
- GI50 (OVCAR-5): 31.7 µM (inactive)
- GI50 (SF-539): 12.9 µM (inactive)
- GI50 (SK-OV-3): 65.8 µM (inactive)
- GI50 (A498): 21.8 µM (inactive)
- GI50 (KM12): 28.9 µM (inactive)
- GI50 (UACC-257): 18.5 µM (inactive)
- GI50 (CAKI-1): 31.2 µM (inactive)
- GI50 (NCI-H226): 66.5 µM (inactive)
- GI50 (NCI-H460): 30.8 µM (inactive)
- GI50 (COLO 205): 20.7 µM (inactive)
- GI50 (SK-MEL-5): 13.3 µM (inactive)
- GI50 (HT-29): 21.4 µM (inactive)
- GI50 (MCF7): 32.6 µM (inactive)
- GI50 (UO-31): 37.5 µM (inactive)
- GI50 (ACHN): 28.2 µM (inactive)
- GI50 (MOLT-4): 12.5 µM (inactive)
- GI50 (MDA-MB-435): 32.2 µM (inactive)
- GI50 (SK-MEL-28): 31 µM (inactive)
- GI50 (NCI/ADR-RES): 26.4 µM (inactive)
- GI50 (CCRF-CEM): 33.7 µM (inactive)
- GI50 (UACC-62): 13.8 µM (inactive)
- GI50 (HCC 2998): 13.2 µM (inactive)
- GI50 (SF-268): 27.5 µM (inactive)
- GI50 (SNB-75): 4.75 µM (inactive)
- GI50 (Malme-3M): 24.5 µM (inactive)
- GI50 (PC-3): 17.5 µM (inactive)
- GI50 (NCI-H522): 25.1 µM (inactive)
- GI50 (HL-60): 16.3 µM (inactive)
- GI50 (SNB-19): 26.2 µM (inactive)
- GI50 (Hs-578T): 23.9 µM (inactive)

Structure (SMILES): CN(CCN(C)C(=S)NN)C(=S)NN
- GI50 (DU-145): > 100 µM (inactive)
- GI50 (SK-MEL-2): > 100 µM (inactive)
- GI50 (SW-620): > 100 µM (inactive)
- GI50 (RPMI-8226): > 100 µM (inactive)
- GI50 (U-251): > 100 µM (inactive)
- GI50 (MDA-MB-231): > 100 µM (inactive)
- GI50 (OVCAR-4): > 100 µM (inactive)
- GI50 (OVCAR-3): > 100 µM (inactive)
- GI50 (NCI-H23): > 100 µM (inactive)
- GI50 (T47D): > 100 µM (inactive)
- GI50 (786-0): > 100 µM (inactive)
- GI50 (SF-295): > 100 µM (inactive)
- GI50 (BT-549): > 100 µM (inactive)
- GI50 (HCT-116): > 100 µM (inactive)
- GI50 (EKVX): > 100 µM (inactive)
- GI50 (HOP-62): > 100 µM (inactive)
- GI50 (A549): > 100 µM (inactive)
- GI50 (IGROV-1): > 100 µM (inactive)
- GI50 (M14): > 100 µM (inactive)
- GI50 (SN12C): > 100 µM (inactive)
- GI50 (MDA-N): > 100 µM (inactive)
- GI50 (OVCAR-5): > 100 µM (inactive)
- GI50 (SK-OV-3): > 100 µM (inactive)
- GI50 (KM12): > 100 µM (inactive)
- GI50 (UACC-257): > 100 µM (inactive)
- GI50 (CAKI-1): > 100 µM (inactive)
- GI50 (NCI-H460): > 100 µM (inactive)
- GI50 (COLO 205): > 100 µM (inactive)
- GI50 (SK-MEL-5): > 100 µM (inactive)
- GI50 (HT-29): > 100 µM (inactive)
- GI50 (UO-31): > 100 µM (inactive)
- GI50 (ACHN): > 100 µM (inactive)
- GI50 (MOLT-4): > 100 µM (inactive)
- GI50 (MDA-MB-435): > 100 µM (inactive)
- GI50 (SK-MEL-28): > 100 µM (inactive)
- GI50 (CCRF-CEM): > 100 µM (inactive)
- GI50 (UACC-62): > 100 µM (inactive)
- GI50 (HCC 2998): > 100 µM (inactive)
- GI50 (SF-268): > 100 µM (inactive)
- GI50 (LOX IMVI): > 100 µM (inactive)
- GI50 (SNB-75): > 100 µM (inactive)
- GI50 (Malme-3M): > 100 µM (inactive)
- GI50 (SR): > 100 µM (inactive)
- GI50 (PC-3): > 100 µM (inactive)
- GI50 (NCI-H522): > 100 µM (inactive)
- GI50 (HL-60): > 100 µM (inactive)
- GI50 (SNB-19): > 100 µM (inactive)
- GI50 (Hs-578T): > 100 µM (inactive)
